We go through ten compounds from PubChem BioAssay AID328 (DTP/NCI, 2004).

For this assay, the system named is BDF1 mice, P388 leukemia ip, median survival T/C. Briefly: NCI In Vivo Anticancer Drug Screen. Data for tumor model P388 Leukemia (intraperitoneal) in B6D2F1 (BDF1) mice. The settings on record: endpoint: median survival time, higher = longer survival. In a few lines:
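Transplantable tumour in mice; compound vs vehicle dosing; survival scored; ratio of treated to control reported.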

The mark [1] stands for this setting: dose: 25.0 mg/kg/injection, schedule: Q01DX009 (ip), vehicle: saline with Tween-80.
[2] abbreviates: dose: 100.0 mg/kg/injection, schedule: Q04DX003 (ip), vehicle: saline.
The mark [3] stands for this setting: dose: 200.0 mg/kg/injection, schedule: Q04DX003 (ip), vehicle: saline.
The mark [4] stands for this setting: dose: 100.0 mg/kg/injection, schedule: Q04DX003 (ip), vehicle: Klucel (hydroxypropylcellulose) (HPC).
Setting [5] is: dose: 200.0 mg/kg/injection, schedule: Q01DX009 (ip), vehicle: Klucel (hydroxypropylcellulose) (HPC).
[6] abbreviates: dose: 200.0 mg/kg/injection, schedule: Q04DX003 (ip), vehicle: Klucel (hydroxypropylcellulose) (HPC).
The mark [7] stands for this setting: dose: 400.0 mg/kg/injection, schedule: Q01DX009 (ip), vehicle: Klucel (hydroxypropylcellulose) (HPC).
Setting [8] is: dose: 400.0 mg/kg/injection, schedule: Q04DX003 (ip), vehicle: Klucel (hydroxypropylcellulose) (HPC).

Where “and” joins values, the source holds several entries; their conditions need not be identical. Identical values can stand only once. Toxic doses and inconclusive results are not listed.

On to `CN=C(NC)c1ccc(NC(=O)c2ccc(C(=O)Nc3ccc(C(=NC)NC)cc3)cc2)cc1`, for which the T/C is 104 % of control (dose: 6.25 mg/kg/injection, schedule: Q01DX009 (ip), vehicle: saline with Tween-80); 100 % of control (dose: 12.5 mg/kg/injection, schedule: Q01DX009 (ip), vehicle: saline with Tween-80); 86 % of control under setting [1]; 90 % of control under setting [2]; 90 % of control under setting [3].
For `OCc1cccc(F)c1`, the T/C (dose: 100.0 mg/kg/injection, schedule: Q01DX009 (ip), vehicle: saline) was 96 % of control; the T/C under setting [2] is 109 % of control; the T/C (dose: 200.0 mg/kg/injection, schedule: Q01DX009 (ip), vehicle: saline) is 107 % of control; the T/C under setting [3] was 109 % of control; the T/C (dose: 400.0 mg/kg/injection, schedule: Q04DX003 (ip), vehicle: saline) was 104 % of control.
Take `COc1ccc(C)cc1CN1NC(=O)CC1=N`: the T/C by setting is: (dose: 100.0 mg/kg/injection, schedule: Q01DX009 (ip), vehicle: Klucel (hydroxypropylcellulose) (HPC)) 100 % of control; under setting [4], 100 % of control; under setting [5], 109 % of control; under setting [6], 122 % of control; under setting [7], 100 % of control; under setting [8], 94 % of control.
In the case of `CCCC(=O)Nc1ccn(C2OC(COC(=O)CCC)C(OC(=O)CCC)C2OC(=O)CCC)c(=O)n1` (stereo not given), the T/C reads like this: (dose: 6.25 mg/kg/injection, schedule: Q01DX009 (ip), vehicle: Klucel (hydroxypropylcellulose) (HPC)) 91 % of control; (dose: 12.5 mg/kg/injection, schedule: Q01DX009 (ip), vehicle: Klucel (hydroxypropylcellulose) (HPC)) 100 % of control; (dose: 25.0 mg/kg/injection, schedule: Q01DX009 (ip), vehicle: Klucel (hydroxypropylcellulose) (HPC)) 87 % of control; (dose: 50.0 mg/kg/injection, schedule: Q01DX009 (ip), vehicle: Klucel (hydroxypropylcellulose) (HPC)) 104 % of control; under setting [4], 100 % of control; under setting [5], 165 % of control and 177 % of control. Further, the T/C under setting [6] was 109 % of control; the T/C under setting [7] is 181 % of control and 190 % of control; the T/C under setting [8] is 122 % of control.
With `COc1cc(NC(=O)CC(C)=O)cc2c(C)cc(=O)[nH]c12`, the T/C is 91 % of control (dose: 75.0 mg/kg/injection, schedule: Q04DX003 (ip), vehicle: Klucel (hydroxypropylcellulose) (HPC)); 100 % of control (dose: 150.0 mg/kg/injection, schedule: Q04DX003 (ip), vehicle: Klucel (hydroxypropylcellulose) (HPC)); 104 % of control (dose: 300.0 mg/kg/injection, schedule: Q04DX003 (ip), vehicle: Klucel (hydroxypropylcellulose) (HPC)).
Regarding `CC(=O)Nc1ccc(S(=O)(=O)Nc2ccc([N+](=O)[O-])cc2)cc1`, the T/C is, setting by setting: under setting [1], 104 % of control; (dose: 50.0 mg/kg/injection, schedule: Q01DX009 (ip), vehicle: water) 95 % of control; (dose: 100.0 mg/kg/injection, schedule: Q01DX009 (ip), vehicle: saline with Tween-80) 97 % of control; (dose: 200.0 mg/kg/injection, schedule: Q01DX009 (ip), vehicle: saline with Tween-80) 97 % of control; (dose: 400.0 mg/kg/injection, schedule: Q01DX009 (ip), vehicle: saline with Tween-80) 106 % of control.
Turning to `C[N-]c1nnnn1Cc1ccccc1.[Au+].c1ccc([PH+](c2ccccc2)c2ccccc2)cc1`, the T/C is 109 % of control (dose: 25.0 mg/kg/injection, schedule: Q04DX002 (ip), vehicle: saline with Tween-80); 102 % of control (dose: 50.0 mg/kg/injection, schedule: Q04DX002 (ip), vehicle: saline with Tween-80); 116 % of control (dose: 100.0 mg/kg/injection, schedule: Q04DX002 (ip), vehicle: saline with Tween-80).
As for `CC1=C2CC(C)(C)/C=C\C(=O)/C(C)=C\C3=CC(C)(O)CC3(O2)C1=O` (stereo not given), the T/C was 93 % of control (dose: 0.16 mg/kg/injection, schedule: Q01DX009 (ip), vehicle: saline + alcohol); 118 % of control (dose: 0.31 mg/kg/injection, schedule: Q01DX009 (ip), vehicle: saline + alcohol); 120 % of control (dose: 0.62 mg/kg/injection, schedule: Q01DX009 (ip), vehicle: saline + alcohol); 118 % of control (dose: 1.25 mg/kg/injection, schedule: Q01DX009 (ip), vehicle: saline + alcohol); 154 % of control (dose: 10.0 mg/kg/injection, schedule: Q01DX009 (ip), vehicle: saline + alcohol).
As for `c1ccc([P+](c2ccccc2)(c2ccccc2)c2ccccc2)cc1`, the T/C by setting is: (dose: 0.06 mg/kg/injection, schedule: Q01DX009 (ip), vehicle: saline) 116 % of control; (dose: 0.09 mg/kg/injection, schedule: Q01DX009 (ip), vehicle: saline) 122 % of control; (dose: 0.13 mg/kg/injection, schedule: Q01DX009 (ip), vehicle: saline) 100 % of control; (dose: 0.2 mg/kg/injection, schedule: Q01DX009 (ip), vehicle: saline) 100 % of control; (dose: 0.3 mg/kg/injection, schedule: Q01DX009 (ip), vehicle: saline) 104 % of control; (dose: 0.4 mg/kg/injection, schedule: Q01DX009 (ip), vehicle: saline) 150 % of control. In addition, the T/C was 165 % of control (dose: 0.41 mg/kg/injection, schedule: Q01DX009 (ip), vehicle: saline); 120 % of control (dose: 0.44 mg/kg/injection, schedule: Q01DX009 (ip), vehicle: saline); 150 % of control and 163 % of control and 170 % of control (dose: 0.62 mg/kg/injection, schedule: Q01DX009 (ip), vehicle: saline); 171 % of control (dose: 0.66 mg/kg/injection, schedule: Q01DX009 (ip), vehicle: saline); 118 % of control (dose: 0.67 mg/kg/injection, schedule: Q04DX003 (ip), vehicle: saline); 150 % of control and 165 % of control (dose: 0.93 mg/kg/injection, schedule: Q01DX009 (ip), vehicle: saline). In addition, the T/C is, setting by setting: (dose: 1.0 mg/kg/injection, schedule: Q01DX009 (ip), vehicle: Klucel (hydroxypropylcellulose) (HPC)) 155 % of control; (dose: 1.0 mg/kg/injection, schedule: Q01DX009 (ip), vehicle: saline) 180 % of control; (dose: 1.35 mg/kg/injection, schedule: Q04DX003 (ip), vehicle: saline) 122 % of control; (dose: 1.5 mg/kg/injection, schedule: Q01DX009 (ip), vehicle: Klucel (hydroxypropylcellulose) (HPC)) 158 % of control; (dose: 1.5 mg/kg/injection, schedule: Q01DX009 (ip), vehicle: saline) 154 % of control and 164 % of control; (dose: 2.0 mg/kg/injection, schedule: Q01DX009 (ip), vehicle: Klucel (hydroxypropylcellulose) (HPC)) 157 % of control and 163 % of control. The T/C is, setting by setting: (dose: 2.25 mg/kg/injection, schedule: Q01DX009 (ip), vehicle: saline) 164 % of control; (dose: 3.2 mg/kg/injection, schedule: Q01DX009 (ip), vehicle: Klucel (hydroxypropylcellulose) (HPC)) 175 % of control; (dose: 4.0 mg/kg/injection, schedule: Q01DX009 (ip), vehicle: Klucel (hydroxypropylcellulose) (HPC)) 164 % of control; (dose: 4.0 mg/kg/injection, schedule: Q04DX003 (ip), vehicle: saline) 158 % of control and 165 % of control; (dose: 7.5 mg/kg/injection, schedule: Q01DX009 (ip), vehicle: Klucel (hydroxypropylcellulose) (HPC)) 89 % of control and 100 % of control.
Turning to `O=C(CCN1CC1)OCCOC(=O)CCN1CC1`, the T/C was 112 % of control (dose: 1.5 mg/kg/injection, schedule: Q01DX009 (ip), vehicle: saline with Tween-80); 150 % of control (dose: 16.0 mg/kg/injection, schedule: Q04DX003 (ip), vehicle: saline with Tween-80); 163 % of control (dose: 21.0 mg/kg/injection, schedule: Q04DX003 (ip), vehicle: saline with Tween-80); 163 % of control (dose: 33.0 mg/kg/injection, schedule: Q04DX003 (ip), vehicle: saline with Tween-80); 195 % of control (dose: 50.0 mg/kg/injection, schedule: Q04DX003 (ip), vehicle: saline with Tween-80); 181 % of control (dose: 75.0 mg/kg/injection, schedule: Q04DX003 (ip), vehicle: saline with Tween-80).
